Experimental findings from PubChem BioAssay (NCI) are described below.

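Step 1: Grow cells in 96-well plates. Step 2: Expose to compound for 48 hours at 5 concentrations. Step 3: Interpolate endpoints linearly; if unreached, use highest concentration. TGI: total growth inhibition.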 Where only a bound is given, the exact number is not on record here.

What all share (assay): inhibition of tumour cell growth, NCI panel, 48 h
Assay [1] relates to CCRF-CEM leukemia.
For assay [2], the system named is HCT-15 colon.
In assay [3] the test system is HOP-62 NSCLC.
Assay [4] concerns MCF7 breast.
Assay [5] concerns MOLT-4 leukemia.
In assay [6] the test system is NCI-H23 lung.
Assay [7] deals with SF-295 CNS.
In assay [8] the test system is SK-MEL-28 melanoma.
Assay [9] relates to SN12C renal.
Assay [10] concerns SNB-75 CNS.
The test system of assay [11] is SR leukemia.
For assay [12], the system named is SW-620 colon.
The test system of assay [13] is UACC-257 melanoma.
Assay [14] concerns UO-31 renal.
In assay [15] the test system is NCI-H226 lung.
Assay [16] deals with PC-3 prostate.
Assay [17] has as its system SK-MEL-2 melanoma.

As to `O=C(/C=C/c1cccc([N+](=O)[O-])c1)N1CCN(CCOC(c2ccccc2)c2ccccc2)CC1`, the TGI is 65.4 µM in assay [1]; greater than 100 µM in assay [2]; greater than 100 µM in assay [3]; greater than 100 µM in assay [4]; 27.4 µM in assay [5]; greater than 100 µM in assay [6]. In addition, the TGI in [7] is greater than 100 µM; in assay [8], 64.2 µM; in [9], greater than 100 µM; in assay [10], greater than 100 µM; in [11], 32.9 µM; in assay [12], greater than 100 µM. Also, the TGI in assay [13] was 89.2 µM; in assay [14], greater than 100 µM.
As for `NCc1ccc(-c2ccc(CN)s2)s1`, the TGI in assay [1], in assay [2], in assay [3], in assay [4], in assay [5] and in [15] was greater than 100 µM each time. The TGI in [6], in assay [16], in assay [7], in assay [17], in assay [8] and in assay [9] was greater than 100 µM in each case. Besides, the TGI in assay [10], in assay [12], in assay [13] and in assay [14] was greater than 100 µM throughout.
`O=C1Cc2c([nH]c3ccc(Br)cc23)-c2cc(Br)ccc2N1`: the TGI in assay [1], in assay [2], in assay [4], in [5], in assay [15] and in assay [6] was greater than 100 µM each time. Besides, the TGI in [16], in [7], in [17], in assay [8], in [12] and in assay [13] was greater than 100 µM each time. In addition, in assay [14], the TGI is greater than 100 µM.
On to `O=[N+]([O-])/C(C(Cl)=C(Cl)Cl)=C1\Nc2ccc([N+](=O)[O-])cc2N1`, for which the TGI was 56.2 µM in assay [1]; greater than 100 µM in [2]; greater than 100 µM in [3]; greater than 100 µM in assay [4]; greater than 100 µM in assay [5]; greater than 100 µM in [15]. In addition, the TGI in [6], in assay [16], in assay [7], in [17], in [8] and in assay [9] was greater than 100 µM in each case. The TGI in [10] is greater than 100 µM; in assay [13] it was greater than 100 µM; in assay [14] it was 27.5 µM.
For `CC1(n2nc(-c3ccccc3)n(-c3ccccc3)c2=O)CSC1`, the TGI in assay [1], in assay [2], in [3], in [5], in assay [15] and in assay [6] was greater than 100 µM in each case. In addition, the TGI in [7], in assay [17], in [8], in assay [9], in assay [10] and in assay [11] was greater than 100 µM throughout. For the same compound, the TGI in [12], in [13] and in assay [14] was greater than 100 µM each time.
Turning to `CN(C)P(=O)(/C(N)=N/Nc1ccc([N+](=O)[O-])cc1)N(C)C`, the TGI in assay [1], in assay [2], in [3], in assay [5], in assay [15] and in [6] was greater than 100 µM each time. In addition, the TGI in [17], in assay [8], in assay [9], in [10], in assay [11] and in assay [12] was greater than 100 µM throughout. Besides, the TGI in assay [13] and in [14] was greater than 100 µM each time.
On to `COC(=O)C1=CC2C(=O)c3ccccc3C1(c1ccccc1)N2C1CCCCC1` (stereo not given), for which the TGI in assay [1] is greater than 100 µM; in [2], greater than 100 µM; in assay [3], 36.8 µM; in assay [4] it was 36.8 µM; in [5] it was greater than 100 µM; in [15], 84.1 µM. For the same compound, the TGI was greater than 100 µM in assay [6]; greater than 100 µM in [16]; 55.3 µM in assay [7]; 29.1 µM in assay [17]; 41.4 µM in [8]; greater than 100 µM in assay [9]. Further, the TGI was greater than 100 µM in [10], greater than 100 µM in assay [12], 39 µM in assay [13] and greater than 100 µM in assay [14].
Turning to `Cc1noc(C)c1CCCOC1COc2ccccc2OCCOCCOc2ccccc2OC1`, the TGI in assay [2], in assay [3], in assay [15], in [6], in assay [7] and in assay [17] was greater than 100 µM each time. Further, the TGI in assay [8], in assay [9], in assay [10], in [12], in assay [13] and in [14] was greater than 100 µM each time.
